Results as given in US6859735B1, “Computer systems for identifying pathways of drug action” (priority 1998, dated 2005).

Experiments:
[1] = system: pathway originating at calcineurin; assay: Genome-wide correlation of FK506 expression responses against combined Cyc A and methotrexate pathway responses (scaling parameter); assay type: cell-based, Saccharomyces cerevisiae; conditions: location of the correlation peak versus scaling parameter applied to FK506 data
Procedure: The gene expression measurements illustrated in FIGS. 8A-C were made as detailed below. To generate the cyclosporin dose response curves, an overnight starter culture of S.cerevisiae strain R563 (Genotype: Mat a ura3-52 lys2-801 ade2-101 trpl-Δ63 his3-Δ200 leu2-Δ1 his3::HIS3) was diluted into 200 ml of YAPD plus 10 mM CaCl2 medium (see, e.g., Ausubel et al., eds., 1996, Current Protocols in Molecular Biology, John Wiley & Sons, Inc., especially ch. 13) to an OD600 of 0.1 and grown at 30° C. with 300 rpm shaking. After a 30 min, cyclosporin A dissolved in ethanol was added to cultures at final concentrations of 60, 30, 15, 6 and 3 μg/ml. Control cultures were treated with the same volume of just ethanol. Growth was monitored by OD600 and cells were harvested at OD600=1.4+/−0.1 by centrifugation for 2 min at ambient temperature in a Sorvall RC5C+centrifuge in a SLA-1500 rotor. […]
In all cases, polyA^+ RNA was isolated by oligo-dT cellulose chromatography using two selections by standard protocols (see, e.g., Sambrook et al. 1989, Molecular Cloning A Laboratory Manual, Cold Spring Harbor Laboratory Press). […] Extent of hybridization was determined by scanning with a prototype multi-frame CCD camera slides produced by Applied Precision, Inc. Images were processed by informatics and imported into the Inpharma database and analyzed using the MatLab data analysis package. […]

[2] = system: wild type yeast cells; conditions: at 10 micrograms/ml doxycycline, Gari et al. 1997; cited from earlier work
[3] = system: yeast gene YOL031C; assay: Transcript array gene expression response to graded methotrexate exposure, Hill function fit; assay type: cell-based, Saccharomyces cerevisiae
Excerpt: In model fitting, the drug and pathway responses are interpolated by approximating each by a single parameterized function. An exemplary model-fitting function appropriate for approximating transcriptional state data is the Hill function, which has adjustable parameters a, u0, and n. [formula]
The adjustable parameters are selected independently for each cellular constituent of the drug response and for each cellular constituent of the pathway response. Preferably, the adjustable parameters are selected so that for each cellular constituent of each pathway response the sum of the squares of the distances of H(pi,l) from Ri,k(pi,l) is minimized, and so that for each cellular constituent of the drug response the sum of the squares of the distances of H(tl) from Dk(tl) is minimized. This preferable parameter adjustment method is known in the art as a least squares fit of H( ) to Ri,k( ) or to Dk( ). Other possible model functions are based on polynomial fitting, for example by various known classes of polynomials.
Model fitting with a Hill function is illustrated with respect to FIGS. 3 and 4. As discussed, FIG. 3 illustrates an example of a pathway perturbed by methotrexate and identified by measurement. This figure illustrates the mRNA expression levels of 30 genes of the yeast S. cerevisiae that, of the approximately 6000 genes in the genome of this yeast, had the largest expression changes in response to six different exposure levels of methotrexate. FIG. 4 illustrates a fit of the pathway response of one of these gene expression levels by a Hill function. […]
In all cases, polyA^+ RNA was isolated by oligo-dT cellulose chromatography using two selections by standard protocols (see, e.g., Sambrook et al. 1989, Molecular Cloning A Laboratory Manual, Cold Spring Harbor Laboratory Press). […] Extent of hybridization was determined by scanning with a prototype multi-frame CCD camera slides produced by Applied Precision, Inc. Images were processed by informatics and imported into the Inpharma database and analyzed using the MatLab data analysis package.

[4] = system: yeast; assay: Growth of yeast under methotrexate exposure; assay type: cell-based, Saccharomyces cerevisiae; conditions: 100 μm methotrexate titration
Procedure: To generate methotrexate dose response curves, an overnight starter culture of S.cerevisiae strain BY4741 (Genotype: Mat a his3Δ0 leu2D0 ura3Δ0 met15Δ0) was diluted into 200 ml of SC medium (see, e.g., Ausubel et al, ch. 13) to an OD600 of 0.1 and grown at 30° C. with 300 rpm shaking. After 30 min, methotrexate dissolved in water was added to cultures at final concentrations of 200, 100, 50, 25, 6.2, and 3.1 μM. Control cultures were treated with the same volume of water. The rest of the procedure was as above.

## C=CC[C@@H]1/C=C(\C)C[C@H](C)C[C@H](OC)[C@H]2O[C@@](O)(C(=O)C(=O)N3CCCC[C@H]3C(=O)O[C@H](/C(C)=C/[C@@H]3CC[C@@H](O)[C@H](OC)C3)[C@H](C)[C@@H](O)CC1=O)[C@H](C)C[C@@H]2OC [FK506]
[1]
  approximate relative potency of FK506 and Cyc A: approximately 63

## C[C@H]1c2cccc(O)c2C(=O)C2=C(O)[C@]3(O)C(=O)C(C(N)=O)=C(O)[C@@H](N(C)C)[C@@H]3[C@@H](O)[C@@H]21 [doxycycline]
[2]
  effect on the growth rate: no significant effect

## CN(Cc1cnc2nc(N)nc(N)c2n1)c1ccc(C(=O)N[C@@H](CCC(=O)O)C(=O)O)cc1 [methotrexate]
[3]; least squares fit of YOL031C expression response (log expression ratio amplitude)
  Hill function parameter a: −0.61
[3]; least squares fit of YOL031C expression response to six methotrexate exposure levels
  Hill function parameter n: 2
[3]; least squares fit of YOL031C expression response, methotrexate exposure levels 3-200 μm
  Hill function parameter log10(u0): 1.26
[4]
  growth defect: 50%
